Measured values taken from US12673946B2, “Pyrimidin-4(3H)-one derivatives as TRPV4 antagonists” (RaQualia Pharma Inc., priority 2020, dated 2026).

target: T1, human TRPV4 (Homo sapiens, UniProt Q9HBA0); experiment: Hypotonicity-induced Ca2+ influx (Fluo-4, FDSS); format: cell-based; conditions: Flp-In T-REx 293 cells expressing human TRPV4, examples listed under heading 'Human IC50<50 nM'
T1 construct: host or cells: tetracycline-inducible Flp-In T-REx 293 cells
Procedure: Hypotonicity-Induced Ca^2+ Influx
TRPV4 channel activation/opening results in an influx of Ca^2+ (Liedtke, W. et al., 2000 (NPL 1)). The resulting changes in intracellular calcium are monitored using a Ca^2+ sensitive fluorescent dye Fluo-4 (Invitrogen). Dye loaded cells are treated with the test compounds for 5 minutes prior to the addition of a hypotonic solution and the inhibition of the hypotonicity-induced activation is recorded.
Forty microL of tetracycline-inducible Flp-In T-REx 293 cells (Invitrogen) stably expressing human TRPV4 are seeded onto the poly-D-lysine coated 384-well plate (Corning) at a density of 10,000 cells per well. The following day, TRPV4 expression is induced by adding 0.5 microg/mL tetracycline for 20-24 hours. On the day of the experiment, the media is removed and replaced with 40 microL of dye loading buffer [1 microM Fluo-4 AM (Invitrogen), 0.01% Pluronic F-127, and 20 mM HEPES in Hanks' balanced salt solutions (HBSS; Invitrogen)] and then the cells are incubated for 60 minutes at 25° C. Dye is then removed and replaced with 20 microL of assay buffer (20 mM HEPES in HBSS). Five minutes prior to the fluorescence measurement, 10 microL of test compound is added to the cells. Using the FDSS instrument (Hamamatsu Photonics), 30 microL of hypotonic solution (90 mM D-mannitol and 1.26 mM CaCl2 in ultrapure water) is added 30 seconds after the start of measurement. The calcium flux signal is recorded for a total of 4.5 minutes.

T1 sequence (Q9HBA0 whole entry): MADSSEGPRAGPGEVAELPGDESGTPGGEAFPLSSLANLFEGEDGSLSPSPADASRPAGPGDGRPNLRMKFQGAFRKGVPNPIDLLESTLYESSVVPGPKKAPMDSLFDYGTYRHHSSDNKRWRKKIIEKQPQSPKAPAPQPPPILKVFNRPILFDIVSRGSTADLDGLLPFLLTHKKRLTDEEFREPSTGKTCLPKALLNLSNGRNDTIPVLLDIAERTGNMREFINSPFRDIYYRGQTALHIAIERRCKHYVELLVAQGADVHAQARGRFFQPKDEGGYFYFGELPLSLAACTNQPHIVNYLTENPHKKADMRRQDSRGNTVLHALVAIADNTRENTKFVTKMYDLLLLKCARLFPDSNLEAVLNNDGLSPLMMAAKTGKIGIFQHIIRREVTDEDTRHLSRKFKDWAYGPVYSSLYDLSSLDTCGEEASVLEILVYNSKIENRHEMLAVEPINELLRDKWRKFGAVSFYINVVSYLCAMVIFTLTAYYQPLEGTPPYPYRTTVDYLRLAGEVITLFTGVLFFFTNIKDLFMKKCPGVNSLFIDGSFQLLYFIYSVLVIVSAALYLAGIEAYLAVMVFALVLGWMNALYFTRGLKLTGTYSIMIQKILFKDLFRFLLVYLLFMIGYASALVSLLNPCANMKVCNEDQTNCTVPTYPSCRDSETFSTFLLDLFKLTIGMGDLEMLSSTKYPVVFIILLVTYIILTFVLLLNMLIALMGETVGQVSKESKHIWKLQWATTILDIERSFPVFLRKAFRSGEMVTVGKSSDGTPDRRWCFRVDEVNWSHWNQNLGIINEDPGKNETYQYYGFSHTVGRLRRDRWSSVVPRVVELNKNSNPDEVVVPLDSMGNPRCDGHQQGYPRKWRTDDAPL

| SMILES | IC50 |
| --- | --- |
| O=C(C(O)c1cccc(Cl)c1F)N1CCc2nc(C3(c4ccccc4)CC3)[nH]c(=O)c2C1 (single isomer, unassigned) [3-69] | < 50 nM |
| O=C(C(F)c1ccccc1)N1CCc2nc(C3(c4ccccc4)CC3)[nH]c(=O)c2C1 (stereo not shown) [2-21] | < 50 nM |
| O=C([C@H](O)c1cccc(Cl)c1)N1CCc2nc(C3(c4ccccc4)CC3)[nH]c(=O)c2C1 [2-33, (R)-6-(2-(3-chlorophenyl)-2-hydroxyacetyl)-2-(1-phenylcyclopropyl)-5,6,7,8-tetrahydropyrido[4,3-d]pyrimidin-4(3H)-one] | < 50 nM |
| O=C([C@H](O)c1cccc(F)c1F)N1CCc2nc(C3(c4ccccc4)CC3)[nH]c(=O)c2C1 [2-34, (R)-(−)-6-(2-(2,3-difluorophenyl)-2-hydroxyacetyl)-2-(1-phenylcyclopropyl)-5,6,7,8-tetrahydropyrido[4,3-d]pyrimidin-4(3H)-one] | < 50 nM |
| O=C([C@H](O)c1cccc(Cl)c1)N1CCc2nc(C3(c4ccc(Cl)cc4)CC3)[nH]c(=O)c2C1 [3-21] | < 50 nM |
| O=C([C@H](O)c1cccc(Cl)c1)N1CCc2nc(C3(c4ccc(F)cc4)CC3)[nH]c(=O)c2C1 [3-22] | < 50 nM |
| O=C(C(O)c1cccc(F)c1F)N1CCc2nc(C3(c4cccc(F)c4)CC3)[nH]c(=O)c2C1 (stereo not shown) [3-28] | < 50 nM |
| O=C([C@H](O)c1cccc(Cl)c1)N1CCc2nc(C3(c4cccc(F)c4)CC3)[nH]c(=O)c2C1 [3-31] | < 50 nM |
| O=C([C@H](O)c1cccc(F)c1F)N1CCc2nc(C3(c4cccc(Cl)c4)CC3)[nH]c(=O)c2C1 [3-48] | < 50 nM |
| O=C([C@H](O)c1cccc(Cl)c1)N1CCc2nc(C3(c4cccc(Cl)c4)CC3)[nH]c(=O)c2C1 [3-50] | < 50 nM |
| O=C([C@H](O)c1cccc(Cl)c1)N1CCc2nc(C3(c4cc(F)cc(F)c4)CC3)[nH]c(=O)c2C1 [3-58] | < 50 nM |
| O=C(C(O)c1cc(Cl)cc(Cl)c1)N1CCc2nc(C3(c4ccccc4)CC3)[nH]c(=O)c2C1 (stereo not shown) [3-62] | < 50 nM |
| O=C(C(O)c1cccc(C(F)(F)F)c1)N1CCc2nc(C3(c4ccccc4)CC3)[nH]c(=O)c2C1 (stereo not shown) [3-66] | < 50 nM |
| O=C(C(O)c1cccc(C(F)(F)F)c1)N1CCc2nc(C3(c4ccc(F)cc4)CC3)[nH]c(=O)c2C1 (stereo not shown) [3-67] | < 50 nM |
| O=C([C@H](O)c1cccc(C(F)(F)F)c1)N1CCc2nc(C3(c4ccccc4)CC3)[nH]c(=O)c2C1 [3-71] | < 50 nM |
| O=C([C@H](O)c1cccc(C(F)(F)F)c1)N1CCc2nc(C3(c4cccc(Cl)c4)CC3)[nH]c(=O)c2C1 [3-72] | < 50 nM |
| O=C([C@H](O)c1cccc(C(F)(F)F)c1)N1CCc2nc(C3(c4cccc(F)c4)CC3)[nH]c(=O)c2C1 [3-73] | < 50 nM |
| O=C([C@H](O)c1cccc(Cl)c1)N1CCc2nc(C3(c4cccs4)CC3)[nH]c(=O)c2C1 [6-7] | < 50 nM |
| O=C([C@H](O)c1cccc(Cl)c1)N1CCc2nc(C3(c4cc(Br)cs4)CC3)[nH]c(=O)c2C1 [6-18] | < 50 nM |
| Cc1csc(C2(c3nc4c(c(=O)[nH]3)CN(C(=O)[C@H](O)c3cccc(Cl)c3)CC4)CC2)c1 [6-20] | < 50 nM |
| O=C([C@H](O)c1cccc(Cl)c1)N1CCc2nc(C3(c4cc(-c5ccccc5)cs4)CC3)[nH]c(=O)c2C1 [6-21] | < 50 nM |
| O=C([C@H](O)c1cccc(F)c1F)N1CCCc2nc(C3(c4ccccc4)CC3)[nH]c(=O)c2C1 [10-6] | < 50 nM |
| O=C([C@H](O)c1cccc(Cl)c1)N1CCCc2nc(C3(c4ccccc4)CC3)[nH]c(=O)c2C1 [10-7] | < 50 nM |
| O=C(C(O)c1ccnc(N2CCCCCC2)c1)N1CCc2nc(C3(c4ccccc4)CC3)[nH]c(=O)c2C1 (stereo not shown) [11-3] | < 50 nM |
| O=C([C@H](O)c1cccc(Cl)c1)N1CCc2nc(C3(c4cccc(C5CCCCC5)c4)CC3)[nH]c(=O)c2C1 [14-1] | < 50 nM |
| O=C([C@H](O)c1cccc(C(F)(F)F)c1)N1CCc2nc(C3(c4cccc(Oc5ccccc5)c4)CC3)[nH]c(=O)c2C1 [14-2] | < 50 nM |

same assay, conditions: Flp-In T-REx 293 cells stably expressing human TRPV4, compounds listed by potency bin (<10 nM Tables 96-1/96-2, <3 nM Table 97)

| SMILES | IC50 |
| --- | --- |
| O=C([C@H](O)c1cccc(Cl)c1)N1CCc2nc(C3(c4cccc(C5CCCCC5)c4)CC3)[nH]c(=O)c2C1 [14-1] | < 3 nM |
| O=C([C@H](O)c1cccc(C(F)(F)F)c1)N1CCc2nc(C3(c4cccc(Oc5ccccc5)c4)CC3)[nH]c(=O)c2C1 [14-2] | < 10 nM |
